We go through one compound from patent US20100129347A1, “HERPES VIRUS INFECTION INHIBITOR, METHOD FOR INHIBITING INFECTION WITH HERPES VIRUS, AND USE THEREOF” (Osaka University, priority 2007, published 2010).

This test concerns HSV-1. The test can be described thus: HSV-1-GFP infection of human PILR-transfected CHO-K1 cells with acyclovir as control (Example 3), GFP expression 18 hours later. The following applies: acyclovir 100 μM or 500 μM, or mAb 10 μg/ml, added 30 minutes before virus; FIG. 10. Format: cell-based. As for the experimental part: HSV-1-GFP of 1.5×10^6 PFU was added to 5×10^4 CHO-K1 cells to which human PILR had been transfected, and expression of GFP was analyzed 18 hours later.
30 minutes before adding the virus, 100 μM or 500 μM of acyclovir, or 10 μg/ml of anti-human PILR mAb (M4) was added, and a ratio of infection with the virus was shown in FIG. 10 with a ratio of infection of cells to which nothing had been added (“control” in FIG. 10) being 100%.

Take `Nc1nc2c(ncn2COCCO)c(=O)[nH]1` [acyclovir]: the “inhibition of infection with HSV (ratio of infection, control = 100%)” value is listed as “did not inhibit infection”.
